From publication PMC11364768 (Nature Communications, 2024) come the findings set out here.

Data set [1] has as its system E. coli (ATCC BAA-1025). Kind of data set: Minimal inhibition concentration. In kind it is cell-based. As to conditions: Escherichia coli, ATCCBAA1025, 20 h, read-out: Antimicrobial activity (MIC in µg/ml) E. coli.
Data set [2] has as its system S. aureus (ATCC 25904). The data set is described as follows: Minimal inhibition concentration. As to conditions: Staphylococcus aureus, ATCC25904, 20 h, read-out: Antimicrobial activity (MIC in µg/ml) S. aureus. In kind it is cell-based.
Data set [3] has as its system K. pneumoniae (ATCC27736). Kind of data set: Minimal inhibition concentration. The class given is cell-based. As to conditions: Klebsiella pneumoniae, ATCC27736, 20 h, read-out: Antimicrobial activity (MIC in µg/ml) K. pneumoniae.
Data set [4] deals with P. aeruginosa (ATCC 47085). The data set is described as follows: Minimal inhibition concentration. In kind it is cell-based. To be noted: Pseudomonas aeruginosa, ATCC47085, 20 h, read-out: Antimicrobial activity (MIC in µg/ml) P. aeruginosa.
For data set [5], the system named is P. aeruginosa. The data set is described as follows: Wound mouse model, bacterial load on the wound surface. The class given is in vivo, Female ICR mice. As to conditions: 10^7 CFU P. aeruginosa inoculated; 10 mg/kg applied to wound twice a day; n = 8.
Data set [6] has as its system S. aureus. Kind of data set: Bacterial resistance development, serial passage. In kind it is cell-based, Staphylococcus aureus. As to conditions: passaged every 24 h, n = 4.
A short description of data set [7]: Organ. In kind it is in vivo, ICR mice. As to conditions: mice, 10 mg/kg.
Data set [8] can be described thus: Blood test, RBC parameters after intraperitoneal injection. As to conditions: mice, 24 h after intraperitoneal injection. In kind it is in vivo, ICR mice.

In brackets after ≈: the same amount, converted by molar mass. No end group written: not given here.

Regarding `C[C@H]1COc2c(N3CCN(C)CC3)c(F)cc3c(=O)c(C(=O)O)cn1c23` [Levofloxacin], the MIC amounted to 2.93 µg/mL (≈ 8.11 µM) in data set [1], 0.09 µg/mL (≈ 0.249 µM) in data set [2], 0.06 µg/mL (≈ 0.166 µM) in data set [3] and 7.81 µg/mL (≈ 21.6 µM) in data set [4]. Also, the “bacteria on the infected wound after 24 h treatment” value in data set [5] is given as 0 CFU.
Turning to `CN[C@H](CC(C)C)C(=O)N[C@H]1C(=O)N[C@@H](CC(N)=O)C(=O)N[C@H]2C(=O)N[C@H]3C(=O)N[C@H](C(=O)N[C@H](C(=O)O)c4cc(O)cc(O)c4-c4cc3ccc4O)[C@H](O)c3ccc(c(Cl)c3)Oc3cc2cc(c3O[C@@H]2O[C@H](CO)[C@@H](O)[C@H](O)[C@H]2O[C@H]2C[C@](C)(N)[C@H](O)[C@H](C)O2)Oc2ccc(cc2Cl)[C@H]1O` [Vancomycin], in data set [3], the MIC was determined as 1000 µg/mL (≈ 690 µM).
On to `O=C(O)c1cn(C2CC2)c2cc(N3CCNCC3)c(F)cc2c1=O` [ciprofloxacin], for which, in data set [6], the “passages after which S. aureus began to develop resistance” value is 10 passages.
Regarding RQIKIWFQIRRWKWKK [T1-2], in data set [7], the “organ-specific toxicity, tissue section images” value is reported as “did not observe organ-specific toxicity”. In data set [8], the Blood test results is given as “no obvious changes”.
As for RQIKIWFQWRRWKWKK [T1-5], the “organ-specific toxicity, tissue section images” value in data set [7] is “did not observe organ-specific toxicity”. In addition, in data set [8], the Blood test results was “no obvious changes”.
For RQIRIWFQWKRWKWKR [T2-10] the same measures were “did not observe organ-specific toxicity” and “no obvious changes”.
